The values below come from patent publication US10864212B2, “Compositions and methods for treating retinal degradation” (University of Kentucky Research Foundation, priority 2013, dated 2020).

One data set addresses T1, human P2X7 receptor (Homo sapiens, UniProt Q99572).
T1 construct: expressed in transfected cells
T1 sequence (Q99572 1-595): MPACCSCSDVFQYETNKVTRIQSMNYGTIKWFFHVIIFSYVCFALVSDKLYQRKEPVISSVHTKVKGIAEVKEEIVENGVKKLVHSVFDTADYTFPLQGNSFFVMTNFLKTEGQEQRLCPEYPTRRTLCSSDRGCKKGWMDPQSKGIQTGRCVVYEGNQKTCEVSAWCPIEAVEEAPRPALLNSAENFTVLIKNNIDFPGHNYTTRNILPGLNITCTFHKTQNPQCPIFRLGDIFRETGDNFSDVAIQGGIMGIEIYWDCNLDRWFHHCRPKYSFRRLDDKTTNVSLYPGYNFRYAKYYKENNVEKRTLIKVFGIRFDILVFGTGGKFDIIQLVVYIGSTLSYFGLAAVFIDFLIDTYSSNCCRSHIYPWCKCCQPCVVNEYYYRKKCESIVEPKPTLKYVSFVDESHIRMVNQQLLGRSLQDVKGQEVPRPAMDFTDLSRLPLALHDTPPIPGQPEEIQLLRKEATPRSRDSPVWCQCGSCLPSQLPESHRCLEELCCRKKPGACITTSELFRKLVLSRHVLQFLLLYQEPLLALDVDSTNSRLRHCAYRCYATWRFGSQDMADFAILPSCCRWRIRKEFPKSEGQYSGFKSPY
Kind of data set: bzATP-induced YO-PRO-1 dye uptake in HEK293 cells stably expressing the human P2X7 receptor. It counts as cell-based. The text has this: Finally, P2X7 activation is associated with the formation of a large pore that is permeable to molecules of up to ˜1000 Da (Adinolfi et al., 2005; Cheewatrakoolpong et al., 2005; Surprenant et al., 1996).

In data set [1] the test system is Caspase-1. Kind of data set: Western blot of Caspase-1 activation in primary human RPE cells transfected with Alu RNA. The format is cell-based. Particulars: for Caspase-1 maturation caused by Alu RNA: 24 hours after Alu administration, 50-100 uM, FIG. 7; for Caspase-1 activation / cleavage (p20) induced by Alu RNA: concentration not given. How it is done:
The bottom row is a vinculin loading control. […]
FIG. 7 is a Western blot showing that Alu RNA causes Caspase-1 maturation in primary human RPE cells at 24 hours after Alu administration (top, middle lane, lower band), which is blocked with co-treatment with azidothymidine (AZT), cordycepin, and abacavir (ABC) (50-100 uM; lanes 3-8 from left). The loading control vinculin is shown on the bottom.
FIG. 21 is a Western blot of Caspase-1 activation (p20 subunit) in primary human RPE cells transfected with Alu RNA±me-d4T.
FIG. 35 is a Western blot of Caspase-1 activation in human RPE cells transfected with Alu RNA±NRTIs (3TC, AZT, ABC).
The bottom row in FIG. 5 is a vinculin loading control. […]
Next, FIG. 7 provides evidence of AZT, cordycepin, and abacavir inhibition of inflammasome activation by Alu RNA. Indeed, Alu RNA causes NLRP3 inflammasome activation, which is marked by processing of the enzyme Caspase 1. FIG. 7 is a Western blot showing that Alu RNA causes Caspase-1 maturation in primary human RPE cells at 24 hours after Alu administration (top, lane 2, lower band), which is blocked with co-treatment with azidothymidine (AZT), cordycepin, and abacavir (ABC) (50-100 uM; Lanes 3-8). Again, the loading control vinculin is shown on the bottom.
In general terms: In western blotting, separated proteins are transferred to a membrane and probed.

In data set [2] the test system is IL-1 beta. Kind of data set: LPS/ATP-induced IL-1 beta activation in Raji TK- and TK+ cells (Western blot of cell lysates). It counts as cell-based. The note with it: FIG. 41. The text has this: (§1) To determine whether LPS/ATP-induced inflammasome activation can be inhibited without RT inhibition, the present inventors utilized thymidine kinase-deficient (Raji/TK^−) and -expressing (Raji/TK^+) cells (Balzarini et al., 1989). After addition of AZT, […], but not TK^− cells, the present inventors produced AZT-triphosphate (AZT-TP), the AZT metabolite required for RT inhibition (FIG. 40; FIG. 46, FIG. 47, FIG. 48, FIG. 49, FIG. 50).
(§2) FIGS. 38-41 illustrate that NRTIs block LPS/ATP-induced inflammasome activation. […] Representative images of n=3-4 experiments are provided in each of FIGS. 38-41.

The next data set has as its system RPE degeneration. The data set is described as follows: RPE degeneration in mice after sub-retinal injection of a plasmid expressing Alu RNA, systemic drug administration. The format is in vivo, mouse.
The test system of data set [3] is Raji TK^+ and Raji TK^− cells. Kind of data set: Phosphorylation of AZT to AZT-triphosphate in Raji TK+ and TK- cells (LC-MS). It counts as in vitro ADME. The note with it: FIG. 40, 50.
Excerpt: FIG. 50 is a standard curve of AZT-TP standards (black circle).
as §1
FIG. 50 is a standard curve of AZT-TP standards (black circle). […] FIG. 50 is representative of two experiments.

The test system of data set [4] is IL-1 beta. The data set is described as follows: MSU-induced IL-1 beta secretion from PMA-differentiated THP-1 monocytes (ELISA). It counts as cell-based, human. Particulars: co-administration at 25-1000 uM, FIG. 11, 12. The text has this:
Human THP-1 monocytes were differentiated into macrophages with PMA.
To illustrate this, human THP-1 monocytes were differentiated into macrophages with PMA. Treatment with MSU increased IL-1 beta secretion compared to non-treated cells.

The subject of another data set is IL-18. Kind of data set: LPS/ATP-induced IL-18 maturation in mouse bone marrow-derived macrophages (Western blot). The format is cell-based. Particulars: supernatants, 100 uM, FIG. 9. The text has this: (§3) To produce FIG. 9, cell culture supernatants were collected after (i) no treatment, (ii) LPS treatment, or (iii) LPS/ATP treatment of mouse bone marrow-derived macrophages and run on Western blotting probing with antibodies for Caspase-1 and IL-18.

Data set [5] has as its system Caspase-1. Kind of data set: LPS/ATP-induced Caspase-1 activation in mouse bone marrow-derived macrophages (Western blot). The format is cell-based. The note with it: mouse bone marrow-derived macrophages, supernatants; 100 uM; FIG. 9.
Excerpt: as §3
Further, the present inventors also tested whether NRTIs blocked inflammasome activation by LPS/ATP, which is not known to signal via reverse transcriptase (Mariathasan et al., 2004; Mariathasan et al., 2006; Martinon et al., 2002).
as §2

The test system of data set [6] is GFP-expressing lentivirus. Kind of data set: Replication of a GFP-expressing lentivirus in HeLa cells. The format is cell-based. Particulars: FIG. 22. The text has this:
The present disclosure further provides the results of additional experiments in FIG. 21-FIG. 23.

Entries after “also recorded” stand apart in the source; their conditions may differ.

Excerpt for RPE degeneration: FIG. 24, top row, provides flat mounts stained for zonula occludens-1 (ZO-1; red), bottom row. Degeneration is outlined if FIG. 24 by blue arrowheads. Representative images of n=4 are shown.
FIG. 36 and FIG. 37 include fundus photographs: top row; flat mounts stained for zonula occludens-1 (ZO-1; red), bottom row. Degeneration is outlined by blue arrowheads. Scale bars, 50 μm.

In the case of `Clc1cccc(-c2nnnn2Cc2cccnc2)c1Cl` [A438079], the “P2X7-mediated YO-PRO-1 dye uptake (fluorescence) induced by bzATP” value at human P2X7 receptor (bzATP 100 μM, 64 μM for both drugs, p<0.05, n=12, FIG. 43) was “inhibited”.

`Cc1cn([C@H]2C[C@H](N=[N+]=[N-])[C@@H](CO)O2)c(=O)[nH]c1=O` [AZT, 3′-azido-2′,3′-dideoxythymidine]: in the data set with Caspase-1 [1], the “Caspase-1 maturation caused by Alu RNA” value is “blocked”. The “Caspase-1 activation / cleavage (p20) induced by Alu RNA” value (from here on “Caspase-1 activation / cleavage”) with Caspase-1 [1] (FIG. 21, 34, 35, 51-53) was “block Caspase 1 activation by Alu RNA; also recorded: block Caspase-1 cleavage induced by Alu RNA”. The “IL-1 beta activation by LPS/ATP” value in the data set with IL-1 beta [2] (Raji TK^+ cells) is reported as “blocks IL-1 beta activation”; in the data set on IL-1 beta [2] (Raji TK^− cells), “still blocks LPS/ATP-induced interleukin-1 beta secretion; also recorded: still inhibited LPS/ATP-induced interleukin-1 beta maturation; also recorded: blocks IL-1 beta activation”. Further, the “RPE degeneration caused by pAlu” value in the data set with RPE degeneration (intraperitoneal administration of AZT, FIG. 37) was “prevent RPE degeneration; also recorded: prevented”. Further, the “Phosphorylation of AZT to AZT-triphosphate (AZT-TP)” value was “produced AZT-TP; also recorded: phosphorylate AZT to AZT-triphosphate (AZT-TP)” in data set [3] (Raji TK^+ cells) and “is not phosphorylated; also recorded: AZT was not phosphorylated; also recorded: AZT-TP was not detectable; also recorded: but not Raji TK^− cells” in data set [3] (Raji TK^− (thymidine kinase-deficient) cells). In addition, the “P2X7-dependent uptake of YO-PRO1 after addition of bzATP” value at human P2X7 receptor (human P2X7-overexpressing HEK293 stable cell line, concentration not given) is “inhibited P2X7-dependent uptake of the fluorescent dye YO-PRO1”.

For the compound `Clc1ccc(C(c2ccc(Cl)cc2)n2cc[n+](CC(OCc3ccc(Cl)cc3Cl)c3ccc(Cl)cc3Cl)c2)cc1` (stereo not shown) [calmidazolium], the “Caspase-1 activation / cleavage” value with Caspase-1 [1] (FIG. 21, 34, 35, 51-53) is “not inhibited”.

For `Nc1ncnc2c1ncn2[C@@H]1O[C@H](CO)C[C@H]1O` [cordycepin], the “Caspase-1 maturation caused by Alu RNA” value in the data set on Caspase-1 [1] is on record as “blocked”. In addition, the “IL-1 beta secretion induced by MSU” value in the data set on IL-1 beta [4] was “did not significantly affect IL-1beta secretion”. For the same compound, the “IL-18 maturation induced by LPS/ATP” value in the data set on IL-18 is listed as “inhibit”. Further, the “Caspase-1 activation (active p20 band) induced by LPS/ATP” value in the data set on Caspase-1 [5] is given as “inhibit”.

Regarding `COC[C@@H]1C=C[C@H](n2cc(C)c(=O)[nH]c2=O)O1` [me-d4T, 5′-OCH3-d4T], the “Caspase-1 activation / cleavage” value with Caspase-1 [1] (FIG. 21, 34, 35, 51-53) was “blocks Caspase-1 activation in human RPE cells”; in the data set on Caspase-1 [1] (FIG. 21, 34, 35, 51-53, listed as 5′-methoxy-d4T), “block Caspase 1 activation by Alu RNA”. Also, the “Alu-induced RPE degeneration” value in the data set with RPE degeneration (me-d4T intraperitoneal injection, n=4, FIG. 24) is recorded as “prevents Alu-induced RPE degeneration in mice”. In addition, the “Replication of a GFP-expressing lentivirus” value in data set [6] (HeLa cells) was “does not block lentivirus replication”. Also, in data set [6] (confirmed by lentivirus replication), the Reverse transcriptase inhibition result is listed as “does not inhibit reverse transcriptase”.
